From ChEMBL document CHEMBL1201862, “PubChem BioAssay data set” (2004)
The source made the active and inactive calls.

What was measured:
HeLa = assay: ATP-based viability loss in HeLa cells – cell-based, CellTiter-Glo luminescence, cherry-pick samples, cytotoxicity control for MITF activator project, dose response (AID 540259); type: functional; conditions: Homo sapiens
[1] = Luminescence Cell-Based Dose Confirmation HTS to Identify Inhibitors of Platelet Dense Granule Release. [Related pubchem assays: 1663 (Primary HTS), 1678 (Summary of Project)]; type: functional
[2] = target: Luciferin 4-monooxygenase (Photinus pyralis, UniProt P08659); assay: inhibition of purified Photinus pyralis luciferase – biochemical, luminescence, dose response (AID 1891)
Sequence of Luciferin 4-monooxygenase (P08659 whole entry): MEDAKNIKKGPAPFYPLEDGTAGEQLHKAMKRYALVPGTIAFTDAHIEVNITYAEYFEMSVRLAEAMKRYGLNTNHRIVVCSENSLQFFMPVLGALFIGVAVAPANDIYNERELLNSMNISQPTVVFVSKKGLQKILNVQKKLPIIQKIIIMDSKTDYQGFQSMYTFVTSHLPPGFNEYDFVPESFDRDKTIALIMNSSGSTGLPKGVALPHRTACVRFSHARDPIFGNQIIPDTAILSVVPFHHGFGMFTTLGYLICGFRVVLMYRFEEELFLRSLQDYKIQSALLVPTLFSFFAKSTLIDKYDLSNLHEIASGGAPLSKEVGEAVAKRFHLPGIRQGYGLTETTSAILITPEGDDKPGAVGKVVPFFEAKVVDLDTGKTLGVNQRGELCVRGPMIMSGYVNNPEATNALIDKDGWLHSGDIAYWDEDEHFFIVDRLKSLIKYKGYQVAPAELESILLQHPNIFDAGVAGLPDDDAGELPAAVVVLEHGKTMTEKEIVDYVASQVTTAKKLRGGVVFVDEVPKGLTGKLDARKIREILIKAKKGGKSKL

Hexokinase HKDC1 = target: T1, Hexokinase HKDC1 (Homo sapiens, UniProt Q2TB90); assay: inhibition of HKDC1 glucose phosphorylation – biochemical, W721R variant, dose response (AID 504729); type: functional
T1 sequence (Q2TB90 whole entry): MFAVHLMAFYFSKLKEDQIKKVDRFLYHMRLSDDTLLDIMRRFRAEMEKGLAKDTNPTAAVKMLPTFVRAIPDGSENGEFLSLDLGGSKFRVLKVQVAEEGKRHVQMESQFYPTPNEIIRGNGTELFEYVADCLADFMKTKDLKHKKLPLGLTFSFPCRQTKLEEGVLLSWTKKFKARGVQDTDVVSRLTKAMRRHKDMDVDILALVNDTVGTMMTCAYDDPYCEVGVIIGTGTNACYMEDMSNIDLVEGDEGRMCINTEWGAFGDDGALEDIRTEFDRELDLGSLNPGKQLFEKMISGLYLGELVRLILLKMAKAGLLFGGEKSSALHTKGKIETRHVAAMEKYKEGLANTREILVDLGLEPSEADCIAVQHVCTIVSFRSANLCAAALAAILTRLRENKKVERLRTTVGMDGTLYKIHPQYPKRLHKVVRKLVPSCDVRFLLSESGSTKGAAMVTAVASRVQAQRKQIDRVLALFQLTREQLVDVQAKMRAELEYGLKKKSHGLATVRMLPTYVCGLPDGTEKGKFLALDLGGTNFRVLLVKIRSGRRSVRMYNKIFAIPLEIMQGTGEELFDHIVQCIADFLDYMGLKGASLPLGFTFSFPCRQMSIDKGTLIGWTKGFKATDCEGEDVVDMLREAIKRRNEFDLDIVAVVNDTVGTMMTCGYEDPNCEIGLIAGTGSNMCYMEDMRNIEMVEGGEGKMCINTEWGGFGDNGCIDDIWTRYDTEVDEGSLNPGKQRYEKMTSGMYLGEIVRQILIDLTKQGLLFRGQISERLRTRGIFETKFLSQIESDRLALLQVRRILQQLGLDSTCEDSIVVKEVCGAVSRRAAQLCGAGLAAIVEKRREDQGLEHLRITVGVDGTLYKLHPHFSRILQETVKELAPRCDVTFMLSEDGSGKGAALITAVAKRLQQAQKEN

Genome polyprotein = Genome polyprotein (dengue virus type 2, UniProt P29990); assay: flavivirus cap methylation enzyme inhibition – biochemical, confirmation dose response, primary screen (AID 588689); type: functional
Sequence of Genome polyprotein (P29990 2492-3391 limits assumed): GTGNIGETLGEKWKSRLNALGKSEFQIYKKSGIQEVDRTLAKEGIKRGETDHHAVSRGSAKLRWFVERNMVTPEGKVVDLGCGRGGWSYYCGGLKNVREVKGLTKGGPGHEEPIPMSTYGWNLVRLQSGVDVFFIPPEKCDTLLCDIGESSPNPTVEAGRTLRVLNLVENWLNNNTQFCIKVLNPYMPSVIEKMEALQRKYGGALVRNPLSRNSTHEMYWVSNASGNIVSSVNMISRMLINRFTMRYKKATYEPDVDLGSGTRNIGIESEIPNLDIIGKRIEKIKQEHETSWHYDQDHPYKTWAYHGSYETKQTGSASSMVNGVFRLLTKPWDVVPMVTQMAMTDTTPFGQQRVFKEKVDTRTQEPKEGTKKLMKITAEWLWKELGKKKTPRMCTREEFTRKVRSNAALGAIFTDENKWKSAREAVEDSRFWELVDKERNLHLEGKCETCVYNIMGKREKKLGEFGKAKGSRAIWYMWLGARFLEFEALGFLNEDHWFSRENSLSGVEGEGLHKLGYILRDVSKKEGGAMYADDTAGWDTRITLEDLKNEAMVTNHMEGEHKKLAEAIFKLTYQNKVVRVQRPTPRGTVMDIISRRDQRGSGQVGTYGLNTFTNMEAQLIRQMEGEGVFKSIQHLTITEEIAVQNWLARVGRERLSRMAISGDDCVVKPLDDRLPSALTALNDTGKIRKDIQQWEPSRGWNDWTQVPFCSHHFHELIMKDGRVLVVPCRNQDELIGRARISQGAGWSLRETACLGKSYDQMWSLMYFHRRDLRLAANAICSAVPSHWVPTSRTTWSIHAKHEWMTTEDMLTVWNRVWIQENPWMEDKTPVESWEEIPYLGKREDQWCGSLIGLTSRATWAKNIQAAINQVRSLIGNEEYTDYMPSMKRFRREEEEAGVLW

Vero = assay: viability of Vero cells under compound – cytotoxicity control for flavivirus capping enzyme inhibitors (AID 588742); type: functional; conditions: Chlorocebus sabaeus
Nonstructural protein 1 = Nonstructural protein 1 (Influenza A virus, UniProt Q194T2); type: functional, Influenza A virus (A/California/07/2009(H1N1))
Sequence of Nonstructural protein 1 (Q194T2 whole entry): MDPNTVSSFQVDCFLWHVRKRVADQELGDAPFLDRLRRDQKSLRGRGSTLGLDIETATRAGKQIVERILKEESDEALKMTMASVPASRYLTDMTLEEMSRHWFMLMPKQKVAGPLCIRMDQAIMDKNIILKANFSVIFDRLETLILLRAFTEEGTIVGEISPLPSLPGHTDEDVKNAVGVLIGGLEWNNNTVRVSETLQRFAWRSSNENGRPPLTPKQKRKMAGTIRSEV

CSc1nc(N)n2nc(-c3ccc(Cl)cc3)cc2n1
AC50 (HeLa): 71.6 µM (active)
EC50 [1]: 3.88 µM (active)
EC50 [2]: 0.464 µM (active)

Cc1ccc(SC2=C(N(C)C)C(=O)c3ccccc3C2=O)cc1
IC50 (Hexokinase HKDC1): 6.72 µM (active)
IC50 (Genome polyprotein): 65 µM (active)
CC50 (Vero): 22.1 µM (active)
IC50 (Nonstructural protein 1): 8.5 µM (active)

CC1(C)CC(=O)c2c(O)cc(OCc3ccc(Br)cc3)cc2O1
AC50 (HeLa): 70.4 µM (active)
